Reference: ChEMBL document CHEMBL1124621, “Inhibition of mammalian folylpolyglutamate synthetase and human dihydrofolate reductase by 5,8-dideaza analogues of folic acid and aminopterin bearing a terminal L-ornithine” (J Med Chem, 1989)
pIC50: −log10 of the molar value.

Experiments:
[1] = test system: folylpolyglutamate synthetase; experiment: (§1) Km for hog liver folyl-poly-glutamate synthetase was evaluated; assay type: ADME, Sus scrofa; conditions: pig, hog liver folylpolyglutamate synthetase
Sus scrofa [2] = species on record: Sus scrofa; experiment: Maximal elimination rate of metabolism for hog liver folyl-poly-glutamate synthetase was evaluated; assay type: ADME; parameters: unit not given here; conditions: pig
Dihydrofolate reductase = target: T1, Dihydrofolate reductase (Homo sapiens, UniProt P00374); experiment: Inhibition of human dihydrofolate reductase; conditions: read-out: I50
T1 sequence (P00374 whole entry): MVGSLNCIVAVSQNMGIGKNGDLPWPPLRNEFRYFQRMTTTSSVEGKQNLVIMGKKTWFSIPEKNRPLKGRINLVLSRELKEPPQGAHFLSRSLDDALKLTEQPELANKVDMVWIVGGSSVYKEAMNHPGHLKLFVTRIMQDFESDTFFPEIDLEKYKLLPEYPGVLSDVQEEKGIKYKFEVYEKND

Sus scrofa [3] = species on record: Sus scrofa; experiment: as §1; assay type: ADME; conditions: pig

Row | Structure (SMILES) | Km [1] | Vmax (Sus scrofa [2]) | pIC50 (Dihydrofolate reductase) | Km (Sus scrofa [3])
1 | Nc1nc(N)c2c(Cl)c(CNc3ccc(C(=O)NC(CCC(=O)O)C(=O)O)cc3)ccc2n1 (stereo not drawn) | 0.2 µM | 57 |  | 
2 | Nc1nc(O)c2cc(COc3ccc(C(=O)NC(CCC(=O)O)C(=O)O)cc3)ccc2n1 (stereo not drawn) | 22 µM | 25 |  | 
3 | NCCCC(NC(=O)c1ccc(OCc2ccc3nc[nH]c(=O)c3c2)cc1)C(=O)O (stereo not drawn) |  |  | 5.42 | 
4 | O=C(O)CCC(NC(=O)c1ccc(SCc2ccc3ncnc(O)c3c2)cc1)C(=O)O (stereo not drawn) | 8.1 µM | 50 |  | 
5 | NCCCC(NC(=O)c1ccc(NCc2ccc3nc(N)nc(N)c3c2Cl)cc1)C(=O)O (stereo not drawn) |  |  | 8.52 | 
6 | Nc1nc2ncc(CNc3ccc(C(=O)N[C@@H](CCC(=O)O)C(=O)O)cc3)nc2c(=O)[nH]1 (stereo in doubt; form 2) [FOLIC ACID] |  | 61 |  | 93 µM
7 | NCCCC(NC(=O)c1ccc(SCc2ccc3nc(N)[nH]c(=O)c3c2)cc1)C(=O)O (stereo not drawn) |  |  | 5.82 | 
8 | NCCCC(NC(=O)c1ccc(NCc2ccc3nc(N)[nH]c(=O)c3c2Cl)cc1)C(=O)O (stereo not drawn) |  |  | 6.37 | 
9 | O=C(O)CCC(NC(=O)c1ccc(OCc2ccc3ncnc(O)c3c2)cc1)C(=O)O (stereo not drawn) | 35 µM | 95 |  | 
10 | NCCCC(NC(=O)c1ccc(OCc2ccc3nc(N)nc(O)c3c2)cc1)C(=O)O (stereo not drawn) |  |  | 6.28 | 
11 | NCCCC(NC(=O)c1ccc(SCc2ccc3ncnc(O)c3c2)cc1)C(=O)O (stereo not drawn) |  |  | 5.42 | 
12 | Nc1nc(O)c2c(Cl)c(CNc3ccc(C(=O)NC(CCC(=O)O)C(=O)O)cc3)ccc2n1 (stereo not drawn) | 0.3 µM | 68 | 7.00 | 
13 | Nc1nc2ncc(CNc3ccc(C(=O)N[C@@H](CCC(=O)O)C(=O)O)cc3)nc2c(=O)[nH]1 (stereo in doubt; form 1) [FOLIC ACID] |  | 100 |  | 7.7 µM
14 | Nc1nc(O)c2cc(CSc3ccc(C(=O)NC(CCC(=O)O)C(=O)O)cc3)ccc2n1 (stereo not drawn) | 15 µM | 33 |  | 
